Legend:
sebum production = details: administration of isotretinoin, current treatment; cited from earlier work
[1] = Study of the properties of pactimibe: toxicity
ACAT/SOAT enzyme = experiment: Measurement of ACAT/SOAT activity (NBD-cholesterol fluorescence assay in HepG2 cells); type: cell-based; details: NBD-cholesterol 1 μg/ml, incubation 6 h at 37° C., read-out: inhibition of cholesterol ester synthesis, IC50
From the text: Measurement of ACAT/SOAT Activity:
The objective of this test is to visualize the activity of the ACAT/SOAT enzyme on the synthesis of cholesterol esters.
The test is based on the following publication: “Identification of ACAT1- and ACAT2-specific inhibitors using a novel, cell based fluorescence assay: individual ACAT uniqueness”, J. Lipid Res., (2004) vol. 45, pages 378-386.
The principle of this test is based on the use of NBD-cholesterol, which is a cholesterol analogue of which the fluorescence is dependent on its environment. When said analogue is in a polar environment, it is weakly fluorescent, whereas in a non-polar environment, it is strongly fluorescent. Free NBD-cholesterol is localized in the cell membranes and is weakly fluorescent in this polar environment. When NBD-cholesterol is esterified by ACAT, the NBD-cholesterol ester is localized in non-polar lipid droplets and is therefore strongly fluorescent.
HepG2 cells are incubated in the presence of NBD-cholesterol (1 μg/ml) and of the test product in transparent-bottomed black 96-well plates at a rate of 30 000 cells per well. […] After the addition of 50 μl of lysis buffer (10 mM NaPO4, 1% Igepal), the plates are shaken for 5 min and read by fluorescence (excitation 490 nm, emission 540 nm) on the Fusion instrument (Perkin Elmer).

sebaceous glands = experiment: Study of the properties of pactimibe: sebum production by the sebaceous glands

Compound | decrease of sebum production (sebum production) [%] | side effects (sebum production) | toxicity [1] | IC50 (ACAT/SOAT enzyme) [nM] | sebum production by the sebaceous glands (sebaceous glands)
CC1=C(/C=C/C(C)=C/C=C/C(C)=C\C(=O)O)C(C)(C)CCC1 [isotretinoin] | ~90 | considerable side effects | – | – | –
CCCCCCCCN1CCc2c(C)c(CC(=O)O)c(C)c(NC(=O)C(C)(C)C)c21 [pactimibe, N-(1-octyl-5-carboxymethyl-4,6-dimethylindolin-7-yl)-2,2-dimethylpropanamide] | – | – | not toxic | 50 | reduce sebum production
